Measured values reported in patent US8883841B2, “Oncogenic ras-specific cytotoxic compound and methods of use thereof” (The Board of Regents of the University of Texas System, priority 2005, dated 2014).
Structures can show the parent of a compound that is named as a salt. Where two headings read alike, the source gives them in different places.

What was measured:
[1] = test system: T29 cells; assay: cells; conditions: Homo sapiens, T29, read-out: IC50 in T29 cells
[2] = test system: T29Kt1 cells; assay: cells; conditions: Homo sapiens
[3] = test system: H460 cells; assay: cells; conditions: Homo sapiens
[4] = test system: T29Kt1 cells; conditions: Table 1; value is the negative log10 of mol/L
[5] = test system: T29 cells; conditions: Table 1; value is the negative log10 of mol/L
[6] = test system: H322 cells; assay: Cell viability, H322 lung cancer cells; assay type: cell-based, human; conditions: Homo sapiens, NCI-H322; H322, Lung; read-out: IC50 (−LogM) (converted)
[7] = test system: H1395; assay: Cell viability, H1395 lung cancer cells; assay type: cell-based, human; conditions: Homo sapiens, NCI-H1395; H1395, Lung; read-out: IC50 (−LogM) (converted)
[8] = test system: H23; assay: Cell viability, H23 lung cancer cells; assay type: cell-based, human; conditions: Homo sapiens, NCI-H23; H23, Lung; read-out: IC50 (−LogM) (converted)
[9] = test system: H1299 cells; assay: Cell viability, H1299 lung cancer cells; assay type: cell-based, human; conditions: Homo sapiens, NCI-H1299; h1299, Lung; read-out: IC50 (−LogM) (converted)
[10] = test system: AsPC-1; assay: Cell viability, AsPC-1 pancreatic cancer cells; assay type: cell-based, human; conditions: Homo sapiens; ASPC1, Pancrease; read-out: IC50 (−LogM) (converted)
[11] = test system: Heb46; assay: Cell viability, Heb46 kidney cells; assay type: cell-based
[12] = test system: H2122; assay: Cell viability, H2122 lung cancer cells; assay type: cell-based, human; conditions: Homo sapiens, NCI-H2122; H2122, Lung; read-out: IC50 (−LogM) (converted)
[13] = test system: Ovcar3; assay: Cell viability, Ovcar3 ovary cancer cells; assay type: cell-based; conditions: Homo sapiens, OVCAR-3
[14] = test system: miapac; assay: Cell viability, miapac pancreatic cancer cells; assay type: cell-based, human; conditions: Homo sapiens, Pancreatic cancer cell; miapac, Pancrease; read-out: IC50 (−LogM) (converted)
[15] = test system: H2009; assay: Cell viability, H2009 lung cancer cells; assay type: cell-based, human; conditions: Homo sapiens, NCI-H2009; H2009, Lung; read-out: IC50 (−LogM) (converted)
[16] = test system: Hct116; assay: Cell viability, Hct116 colon cancer cells; assay type: cell-based, human; conditions: Homo sapiens, HCT-116; Hct116, Colon; read-out: IC50 (−LogM) (converted)
[17] = test system: HKE3; assay: Cell viability, HKE3 colon cancer cells; assay type: cell-based, human; conditions: Homo sapiens, HKE3, Colon, read-out: IC50 (−LogM) (converted)
[18] = test system: DLD1; assay: Cell viability, DLD1 colon cancer cells; assay type: cell-based, human; conditions: Homo sapiens, DLD-1; DLD1, Colon; read-out: IC50 (−LogM) (converted)
[19] = test system: Capanc-1; assay: Cell viability, Capanc-1 pancreatic cancer cells; assay type: cell-based, human; conditions: Homo sapiens, Pancreatic cancer cell; capanc1, Pancrease; read-out: IC50 (−LogM) (converted)
[20] = test system: Ovcar443; assay: Cell viability, Ovcar443 ovary cancer cells; assay type: cell-based
[21] = test system: H1933; assay: Cell viability, H1933 lung cancer cells; assay type: cell-based, human; conditions: Homo sapiens; H1933, Lung; read-out: IC50 (−LogM) (converted)
[22] = test system: Ovca429; assay: Cell viability, Ovca429 ovary cancer cells; assay type: cell-based
[23] = test system: A549 cells; assay: Cell viability, A549 lung cancer cells; assay type: cell-based, human; conditions: Homo sapiens; A549, Lung; read-out: IC50 (−LogM) (converted)
[24] = test system: H2087; assay: Cell viability, H2087 lung cancer cells; assay type: cell-based, human; conditions: Homo sapiens, NCI-H2087; H2087, Lung; read-out: IC50 (−LogM) (converted)
[25] = test system: A549CK8; assay: Cell viability, A549CK8 lung cancer cells; assay type: cell-based, human; conditions: Homo sapiens; A549CK8, Lung; read-out: IC50 (−LogM) (converted)
[26] = test system: CT116P53; assay: Cell viability, CT116P53 colon cancer cells; assay type: cell-based, human; conditions: Homo sapiens; CT116P53, Colon; read-out: IC50 (−LogM) (converted)
[27] = test system: SKOV3; assay: Cell viability, SKOV3 ovary cancer cells; assay type: cell-based; conditions: Homo sapiens, SK-OV-3
[28] = test system: H226B cells; assay: Cell viability, H226B lung cancer cells; assay type: cell-based, human; conditions: Homo sapiens, H226B, Lung, read-out: IC50 (−LogM) (converted)
[29] = test system: Heb44; assay: Cell viability, Heb44 kidney cells; assay type: cell-based
[30] = test system: H460 cells; conditions: Table 1; value is the negative log10 of mol/L
[31] = test system: Sw620; assay: Cell viability, Sw620 colon cancer cells; assay type: cell-based, human; conditions: Homo sapiens, SW-620; Sw620, Colon; read-out: IC50 (−LogM) (converted)
[32] = test system: Hey; assay: Cell viability, Hey ovary cancer cells; assay type: cell-based
[33] = T29Kt1, read-out: IC50 in T29k cells, Table 1
[34] = NCI-H460, read-out: IC50 in H460 cells, Table 1
[35] = NCI-H460, read-out: IC50 (−LogM), H460, Lung (converted)

COc1ccc2c(c1)c(CCN)c(C)n2Cc1ccccc1 [Oncrasin K005, [2-(1-benzyl-5-methoxy-2-methyl-1H-indol-3-yl)ethyl]amine hydrochloride]
IC50 [1]: 15.8 µM | IC50 ([2]; T29Kt1, read-out: IC50 in T29k cells): 15.8 µM | IC50 ([3]; NCI-H460, read-out: IC50 in H460 cells): 6.31 µM

COC(=O)c1c(C)n(Cc2cccc3ccccc23)c2ccc(O)cc12 [Oncrasin K011, methyl 5-hydroxy-2-methyl-1-(1-naphthylmethyl)-1H-indole-3-carboxylate]
IC50 [1]: 3.16 µM | IC50 [2, 33]: 3.16 µM | IC50 [3, 34]: 1.58 µM

CC(C)(C)OC(=O)C1=C(N)N(Cc2ccccc2)C2(C)C=CC(=O)C=C12 (stereo not drawn) [Oncrasin K041, tert-butyl 2-amino-1-benzyl-7a-methyl-5-oxo-indole-3-carboxylate]
IC50 [1]: 5.01 µM | IC50 [2, 33]: 5.01 µM

O=C1C(=Cc2ccccn2)c2ccccc2N1Cc1ccccc1 [Oncrasin K046, 2-Indolinone, 1-benzyl-3-(2-pyridylmethylene)-(8CI)]
IC50 in T29k cells [4]: 5.3 | IC50 in T29 cells [5]: 5.3

OCc1cn(Cc2ccc(Cl)c(Cl)c2)c2ccccc12 [Oncrasin K049, [1-(3,4-dichlorobenzyl)-1H-indol-3-yl]methanol]
IC50 [6]: 10 µM | IC50 [7]: 15.8 µM | IC50 [8]: 15.8 µM | IC50 [9]: 10 µM | IC50 [10]: 10 µM | IC50 [11]: 0.0316 µM | IC50 [12]: 0.316 µM | IC50 [13]: 0.01 µM | IC50 [2, 33]: 0.316 µM | IC50 [14]: < 31.6 µM | IC50 [15]: 10 µM | IC50 [3, 35]: 0.0316 µM | IC50 [3, 34]: 0.0316 µM | IC50 [16]: 0.01 µM | IC50 ([17]; first HKE3 line): 0.00251 µM | IC50 ([17]; second HKE3 line): 0.00316 µM | IC50 [18]: < 31.6 µM | IC50 [19]: 12.6 µM | IC50 [20]: 10 µM | IC50 [21]: 100 µM | IC50 [22]: 7.94 µM | IC50 [23]: 10 µM | IC50 [24]: 7.94 µM | IC50 [25]: 6.31 µM | IC50 [26]: < 31.6 µM | IC50 [27]: 3.16 µM | IC50 ([28]; first H226B line): 0.00251 µM | IC50 ([28]; second H226B line): 0.00316 µM | IC50 [29]: 0.01 µM

Cc1ccc(Cn2cc(C=O)c3ccccc32)cc1 [Oncrasin K66, 1H-Indole-3-carboxaldehyde, 1-[(4-methylphenyl)methyl]-]
IC50 [1]: 31.6 µM | IC50 [2, 33]: 3.98 µM | IC50 [3, 34]: 0.0631 µM

Cc1ccc(Cn2cc(CO)c3ccccc32)cc1 [Oncrasin K67, 1H-Indole-3-methanol, 1-[(4-methylphenyl)methyl]-(9CI)]
IC50 in T29k cells [4]: 6.1 | IC50 in T29 cells [5]: 4.8 | IC50 in H460 cells [30]: 7

O=[N+]([O-])c1cccc(Cn2cc(CO)c3ccccc32)c1 [Oncrasin K69, 1H-Indole-3-methanol, 1-[(3-nitrophenyl)methyl]-]
IC50 [31]: 31.6 µM | IC50 [7]: < 31.6 µM | IC50 [10]: 7.94 µM | IC50 [11]: 0.316 µM | IC50 [12]: 2 µM | IC50 [13]: 0.251 µM | IC50 [2, 33]: 0.398 µM | IC50 [14]: < 31.6 µM | IC50 [15]: < 31.6 µM | IC50 [3, 35]: 0.0398 µM | IC50 [3, 34]: 0.0398 µM | IC50 [16]: 0.316 µM | IC50 ([17]; first HKE3 line): 0.0794 µM | IC50 ([17]; second HKE3 line): 1 µM | IC50 [18]: < 31.6 µM | IC50 [19]: 31.6 µM | IC50 [32]: < 31.6 µM | IC50 [21]: < 31.6 µM | IC50 [22]: 31.6 µM | IC50 [24]: 31.6 µM | IC50 [25]: 1.26 µM | IC50 [26]: < 31.6 µM | IC50 [27]: 3.16 µM | IC50 ([28]; first H226B line): 0.0316 µM | IC50 ([28]; second H226B line): 0.1 µM | IC50 [29]: 0.0794 µM

O=[N+]([O-])c1ccc(Cn2cc(CO)c3ccccc32)cc1 [Oncrasin K71, 1H-Indole-3-methanol, 1-[(4-nitrophenyl)methyl]-]
IC50 [31]: 31.6 µM | IC50 [7]: < 31.6 µM | IC50 [8]: 31.6 µM | IC50 [9]: 10 µM | IC50 [10]: 10 µM | IC50 [11]: 3.98 µM | IC50 [12]: 3.16 µM | IC50 [13]: 2.51 µM | IC50 [2, 33]: 0.158 µM | IC50 [14]: < 31.6 µM | IC50 [15]: < 31.6 µM | IC50 [3, 35]: 0.0794 µM | IC50 [3, 34]: 0.0794 µM | IC50 [16]: 3.16 µM | IC50 ([17]; first HKE3 line): 0.398 µM | IC50 ([17]; second HKE3 line): 0.2 µM | IC50 [18]: < 31.6 µM | IC50 [19]: 0.126 µM | IC50 [32]: 31.6 µM | IC50 [21]: 31.6 µM | IC50 [25]: 7.94 µM | IC50 [26]: < 31.6 µM | IC50 ([28]; first H226B line): 0.316 µM | IC50 ([28]; second H226B line): 1.58 µM | IC50 [29]: 0.158 µM

O=Cc1cn(Cc2cc(C(F)(F)F)cc(C(F)(F)F)c2)c2ccccc12 [Oncrasin K76]
IC50 [1]: 6.31 µM | IC50 [2, 33]: 3.98 µM | IC50 [3, 34]: 1.26 µM

OCn1cc(Cc2cc(C(F)(F)F)cc(C(F)(F)F)c2)c2ccccc21 [Oncrasin K77]
IC50 [1]: 6.31 µM | IC50 [2, 33]: 7.94 µM | IC50 [3, 34]: 7.94 µM
